Assay results from PMC11784013, “Potassium molybdate blocks APN-dependent coronavirus entry by degrading receptor via PIK3C3-mediated autophagy” (Journal of Virology, 2024).

Tested on: TGEV Miller
Assay: TGEV challenge of neonatal piglets, PM therapy and prevention
Format: in vivo
Procedure: Fig 10 Oral administration of PM reduces TGEV pathogenicity by autophagic degradation of APN in piglets. (A) Experimental schemes for testing therapeutic and prophylactic efficacy of PM treatment against TGEV challenge in four groups of piglets. (B) Viral shedding was measured by RT-qPCR every 12 h postinfection. (C) TGEV genome copy numbers of duodenum, jejunum, and ileum were detected by RT-qPCR, and APN, PIK3C3, P62, and TGEV N in the small intestine were determined by western blot from piglets sacrificed at 24 hpi. (D) IFA of TGEV N and APN in different segments of the small intestine from piglets sacrificed at 24 hpi. Scale bar: 50 µm. Results are presented as mean ± SD of data from three independent experiments. **, P ≤ 0.01; ***, P ≤ 0.001.
Small intestinal tissues were collected, fixed for 24 h in 10% formalin, dehydrated according to the standard protocol, embedded in paraffin, and subjected to hematoxylin and eosin staining by standard procedures. For immunofluorescence analysis, Organoid monolayers or ST cells were fixed with 4% paraformaldehyde for 20 min and then permeabilized with 0.1% Triton X-100 (Beyotime, China, ST797) for 20 min at 37°C. Organoid monolayers or ST cells were blocked with 5% BSA (Biofroxx, Germany, 4240GR100) for 1 h and then labeled with primary antibodies overnight at 4°C. After rinsing, the sections were incubated with secondary antibodies for 1 h at room temperature. Next, 4’,6-diamidino-2-phenylindole (DAPI; Beyotime, China, C1006) was used to stain the nuclei. After washing, the organoid monolayers or ST cells were visualized using confocal laser-scanning microscopy (Zeiss LSM 900, Germany). Apical-out porcine intestinal organoids or small intestinal tissues were stained with primary and secondary antibodies and visualized using confocal laser-scanning microscopy (Zeiss LSM 900, Germany) according to the manufacturer’s protocol ([28]).
Neonatal pigs spontaneously delivered from sows were confirmed to be negative for TGEV by RT-qPCR and enzyme-linked immunosorbent assay. For the cytotoxicity and pharmacokinetic parameters of the PM, three piglets were orally administered PM (100 mg/kg), and the serum was collected by venipuncture at 0, 1, 2, 4, 6, 8, 10, 12, 16, and 24 h after oral administration of PM for cytotoxicity assays and pharmacokinetic parameter determination. For antiviral animal experiments, piglets were randomly separated into four groups: the mock group ([3]), TGEV group ([3]), TGEV-PM-therapy group ([3]), and TGEV-PM-prevention group ([3]). For the TGEV group, neonatal pigs were orally administered 1.245 × 10^8 PFU TGEV Miller for 24 h. In addition, piglets in the TGEV-PM therapy group were orally infected with 1.245 × 10^8 PFU TGEV Miller and then treated with PM (100 mg/kg). For the TGEV-PM-prevention group, three neonatal pigs were orally pretreated with PM (100 mg/kg) for 24 h and subsequently inoculated with 1.245 × 10^8 PFU TGEV Miller for 24 h. The body weights of all piglets were recorded, and anal swabs were collected every 12 h. At 24 hpi, all pigs were euthanized, and intestinal tissues were collected for RT-qPCR, western blot, IFA, and pathological examination. All animals were handled in strict accordance with good animal practice according to the Animal Ethics Procedures and Guidelines of the People’s Republic of China, and the study was approved by The Animal Administration and Ethics Committee of Lanzhou Veterinary Research Institute, Chinese Academy of Agricultural Sciences (Permit No. LVRIAEC-2020-030).

[1] = PM-therapy and PM-prevention groups vs control, 24 hpi, western blot
[2] = oral PM 100 mg/kg every 12 h, TGEV Miller 1.245 × 10^8 PFU oral

**Q.** For `[K+].[K+].[O]=[Mo](=[O])([O-])[O-]` [PM, potassium molybdate], which “APN expression and TGEV N protein expression in small intestine (IFA)” value (24 hpi) is on record?
**A.** almost entirely inhibited

**Q.** What about the “TGEV-induced villous atrophy of small intestinal segments (H&E)” value (PM 100 mg/kg, preventive or therapeutic treatment, 24 hpi) of the same compound?
**A.** almost completely reversed TGEV-induced villous atrophy

**Q.** And the “effect of PM alone on the small intestine (H&E)” value (PM treatment alone)?
**A.** did not have any impact on the small intestine

**Q.** And the “TGEV burden throughout the small intestine” value (PM-therapy and PM-prevention groups vs control, 24 hpi, RT-qPCR and western blot)?
**A.** substantially lower

**Q.** What about the “APN and P62 expression throughout the small intestine” value [1] of the same compound?
**A.** substantially lower

**Q.** And the “PIK3C3 expression in the small intestine” value [1]?
**A.** significantly higher

**Q.** And the body weight loss [2]?
**A.** TGEV group lost more weight and had higher viral shedding than those receiving PM

**Q.** What about the “viral shedding (anal swabs, RT-qPCR)” value [2] of the same compound?
**A.** TGEV group lost more weight and had higher viral shedding than those receiving PM
